Data: patent US9504729B2, “Antiangiogenic small molecules and methods of use” (The United States of America, as represented by the …, priority 2009, dated 2016)

Test system: angiogenesis genes in dermal microvascular endothelial cells
Assay: Real time RT-PCR of angiogenesis gene expression during endothelial tube formation
Format: cell-based
Details: 1 μM SM, 24 hours

CC1CCN(CC[S-])CC1.O.O.[Cl][Pt+] [compound 292596]
Log2 fold-change of gene expression: 1839: −0.3 | Log2 fold-change of gene expression: 4247: −0.3 | Log2 fold-change of gene expression: 5569: 0.1 | Log2 fold-change of gene expression: 8131: 0.3 | Log2 fold-change of gene expression: 9569: −2.0 | Log2 fold-change of gene expression: 10988: 0.9 | Log2 fold-change of gene expression: 23001: 0.1 | Log2 fold-change of gene expression: 55332: −8.6 | Log2 fold-change of gene expression: 57722: −0.2 | Log2 fold-change of gene expression: 58488: 0.2 | Log2 fold-change of gene expression: 90780: −0.8 | Log2 fold-change of gene expression: 134265: −1.6 | Log2 fold-change of gene expression: AKT1: −0.8 | Log2 fold-change of gene expression: ANGPT1: 2.2 | Log2 fold-change of gene expression: ANGPT2: 0.8 | Log2 fold-change of gene expression: ANGPTL3: 1.0 | Log2 fold-change of gene expression: ANGPTL4: −3.2 | Log2 fold-change of gene expression: ANPEP: 0.8 | Log2 fold-change of gene expression: ANTXR1: −2.1 | Log2 fold-change of gene expression: APOE: 5.1 | Log2 fold-change of gene expression: ARHGEF1: −1.6 | Log2 fold-change of gene expression: Acvrl1: −1.6 | Log2 fold-change of gene expression: Adcy4: 4.3 | Log2 fold-change of gene expression: BAL1: 1.7 | Log2 fold-change of gene expression: BMP1: −0.4 | Log2 fold-change of gene expression: C1orf54: −2.2 | Log2 fold-change of gene expression: CALD1: 1.6 | Log2 fold-change of gene expression: CCL2: 2.4 | Log2 fold-change of gene expression: CCL11: 2.1 | Log2 fold-change of gene expression: CD248: 0.2 | Log2 fold-change of gene expression: CDH5: −0.2 | Log2 fold-change of gene expression: CENTD3: 0.1 | Log2 fold-change of gene expression: CLIC1: 0.6 | Log2 fold-change of gene expression: COL4A3: 1.9 | Log2 fold-change of gene expression: COL18A1: 2.3 | Log2 fold-change of gene expression: COMT: −0.7 | Log2 fold-change of gene expression: CST4: 0.3 | Log2 fold-change of gene expression: CTTNBP2NL: −3.4 | Log2 fold-change of gene expression: CXCL3: −3.8 | Log2 fold-change of gene expression: CXCL5: 5.6 | Log2 fold-change of gene expression: CXCL6: 2.2 | Log2 fold-change of gene expression: CXCL9: 1.5 | Log2 fold-change of gene expression: CXCL10: 2.5 | Log2 fold-change of gene expression: Calcr1: −4.3 | Log2 fold-change of gene expression: Caskin2: −2.3 | Log2 fold-change of gene expression: Ccbp2: 0.0 | Log2 fold-change of gene expression: Cldn5: −0.6 | Log2 fold-change of gene expression: DGKG: 1.8 | Log2 fold-change of gene expression: DKK3: −0.4 | Log2 fold-change of gene expression: DLL4: −6.6 | Log2 fold-change of gene expression: DUT: −1.2 | Log2 fold-change of gene expression: EFNA1: 3.1 | Log2 fold-change of gene expression: EFNA3: 0.5 | Log2 fold-change of gene expression: EFNB2: −3.4 | Log2 fold-change of gene expression: EGF: 2.2 | Log2 fold-change of gene expression: ENG: −0.3 | Log2 fold-change of gene expression: EPHB4: 0.9 | Log2 fold-change of gene expression: EREG: 9.6 | Log2 fold-change of gene expression: ESAM1: −2.0 | Log2 fold-change of gene expression: EXTL3: −0.5 | Log2 fold-change of gene expression: Egf17: −3.3 | Log2 fold-change of gene expression: Ehd4: −1.0 | Log2 fold-change of gene expression: Entpd1: −8.3 | Log2 fold-change of gene expression: Epas1: 0.3 | Log2 fold-change of gene expression: EphB1: 0.4 | Log2 fold-change of gene expression: Erg: −6.4 | Log2 fold-change of gene expression: FGF1: 4.8 | Log2 fold-change of gene expression: FGF2: 2.5 | Log2 fold-change of gene expression: FGFR3: 2.2 | Log2 fold-change of gene expression: FIGF: 1.7 | Log2 fold-change of gene expression: FLT1: −1.9 | Log2 fold-change of gene expression: Fgd5: −1.0 | Log2 fold-change of gene expression: GPCR124: −6.7 | Log2 fold-change of gene expression: GRRP1: 0.2 | Log2 fold-change of gene expression: Grp116: −3.1 | Log2 fold-change of gene expression: HAND2: 1.7 | Log2 fold-change of gene expression: HGF: 2.2 | Log2 fold-change of gene expression: HIF1A: −2.1 | Log2 fold-change of gene expression: HPSE: −0.3 | Log2 fold-change of gene expression: Hspa12b: −3.3 | Log2 fold-change of gene expression: ID1: 4.0 | Log2 fold-change of gene expression: ID3: 1.0 | Log2 fold-change of gene expression: IFNA1: 2.2 | Log2 fold-change of gene expression: IFNB1: 2.6 | Log2 fold-change of gene expression: IFNG: 6.5 | Log2 fold-change of gene expression: IGF1: 0.6 | Log2 fold-change of gene expression: IL1B: −4.1 | Log2 fold-change of gene expression: IL6: 3.7 | Log2 fold-change of gene expression: IL8: 5.1 | Log2 fold-change of gene expression: ITGAV: −0.9 | Log2 fold-change of gene expression: ITGB3: −1.8 | Log2 fold-change of gene expression: Icam1: 0.5 | Log2 fold-change of gene expression: Icam2: −0.4 | Log2 fold-change of gene expression: JAG1: 0.5 | Log2 fold-change of gene expression: KDR: −1.8 | Log2 fold-change of gene expression: Kifc1: 1.6 | Log2 fold-change of gene expression: LAMAS5: −0.3 | Log2 fold-change of gene expression: LECT1: 1.4 | Log2 fold-change of gene expression: LEP: 2.6 | Log2 fold-change of gene expression: Lasts2: 0.4 | Log2 fold-change of gene expression: Lrrk1: −1.5 | Log2 fold-change of gene expression: MDK: −1.5 | Log2 fold-change of gene expression: MMP2: 1.1 | Log2 fold-change of gene expression: MMP9: 1.8 | Log2 fold-change of gene expression: MMP11: −0.3 | Log2 fold-change of gene expression: MRC2: −0.5 | Log2 fold-change of gene expression: Mmm2: −2.4 | Log2 fold-change of gene expression: Myo1b: −2.0 | Log2 fold-change of gene expression: NID1: −3.6 | Log2 fold-change of gene expression: NM023516: 0.2 | Log2 fold-change of gene expression: NRP1: −2.3 | Log2 fold-change of gene expression: NRP2: −3.2 | Log2 fold-change of gene expression: Notch4: −0.6 | Log2 fold-change of gene expression: Npr3: 0.7 | Log2 fold-change of gene expression: PALD: −1.9 | Log2 fold-change of gene expression: PDCD2: −1.1 | Log2 fold-change of gene expression: PDGFA: 4.0 | Log2 fold-change of gene expression: PECAM1: −1.8 | Log2 fold-change of gene expression: PGF: −1.7 | Log2 fold-change of gene expression: PLAU: −0.2 | Log2 fold-change of gene expression: PLG: −0.4 | Log2 fold-change of gene expression: PNMT: −0.7 | Log2 fold-change of gene expression: PROK2: 2.0 | Log2 fold-change of gene expression: PTGS1: 1.1 | Log2 fold-change of gene expression: PTPRCAP: −0.5 | Log2 fold-change of gene expression: Pltp: 0.5 | Log2 fold-change of gene expression: Ptprb: −1.9 | Log2 fold-change of gene expression: Ptprm: −0.8 | Log2 fold-change of gene expression: RAMP2: −5.0 | Log2 fold-change of gene expression: RASD2: −0.5 | Log2 fold-change of gene expression: Rasip1: −0.5 | Log2 fold-change of gene expression: S1PR1: 0.2 | Log2 fold-change of gene expression: SERPINF1: 0.7 | Log2 fold-change of gene expression: SPHK1: 1.8 | Log2 fold-change of gene expression: STAB1: −0.5 | Log2 fold-change of gene expression: Sdc4: 1.4 | Log2 fold-change of gene expression: Sdpr: 0.8 | Log2 fold-change of gene expression: Slc43a3: 0.6 | Log2 fold-change of gene expression: Slco2a1: −1.0 | Log2 fold-change of gene expression: TEK: 1.3 | Log2 fold-change of gene expression: TGFA: 8.9 | Log2 fold-change of gene expression: TGFB1: −0.8 | Log2 fold-change of gene expression: TGFB2: 2.1 | Log2 fold-change of gene expression: TGFBR1: 1.4 | Log2 fold-change of gene expression: THBS1: −0.1 | Log2 fold-change of gene expression: THBS2: 1.1 | Log2 fold-change of gene expression: THY1: −5.8 | Log2 fold-change of gene expression: TIMP1: 1.4 | Log2 fold-change of gene expression: TIMP2: 0.4 | Log2 fold-change of gene expression: TIMP3: −1.2 | Log2 fold-change of gene expression: TNF: 6.1 | Log2 fold-change of gene expression: TNS1: −0.5 | Log2 fold-change of gene expression: TNS3: 1.3 | Log2 fold-change of gene expression: TRA2B: 0.9 | Log2 fold-change of gene expression: TYMP: −5.5 | Log2 fold-change of gene expression: VEGFA: 0.4 | Log2 fold-change of gene expression: VEGFC: 1.6 | Log2 fold-change of gene expression: VGLL4: −2.8 | Log2 fold-change of gene expression: Vwf: −2.6 | Log2 fold-change of gene expression: copa: −0.5 | Log2 fold-change of gene expression: itbp4: −1.5 | Log2 fold-change of gene expression: ralb: −0.5 | Log2 fold-change of gene expression: stard9: −0.9 | Log2 fold-change of gene expression: B2M (1st listing (r49)): −2.0 | Log2 fold-change of gene expression: HPRT1 (1st listing (r50)): −0.5 | Log2 fold-change of gene expression: RPL13A (1st listing (r51)): 1.9 | Log2 fold-change of gene expression: GADPH (1st listing (r52)): 0.3 | Log2 fold-change of gene expression: ACTB (1st listing (r53)): 0.0 | Log2 fold-change of gene expression: PLXDC1 (1st listing (r74)): 0.3 | Log2 fold-change of gene expression: TNFAIP2 (1st listing (r91)): −0.2 | Log2 fold-change of gene expression: Robo4 (1st listing (r95)): −1.2 | Log2 fold-change of gene expression: 151516 (1st listing (r134)): 0.3 | Log2 fold-change of gene expression: TNFAIP2 (2nd listing (r92)): −0.1 | Log2 fold-change of gene expression: B2M (2nd listing (r97)): −1.6 | Log2 fold-change of gene expression: HPRT1 (2nd listing (r98)): 0.1 | Log2 fold-change of gene expression: RPL13A (2nd listing (r99)): 1.5 | Log2 fold-change of gene expression: GADPH (2nd listing (r100)): 0.8 | Log2 fold-change of gene expression: ACTB (2nd listing (r101)): −0.4 | Log2 fold-change of gene expression: PLXDC1 (2nd listing (r104)): 0.2 | Log2 fold-change of gene expression: 151516 (2nd listing (r139)): 0.3 | Log2 fold-change of gene expression: Robo4 (2nd listing (r188)): 0.2 | Log2 fold-change of gene expression: B2M (3rd listing (r145)): −0.4 | Log2 fold-change of gene expression: HPRT1 (3rd listing (r146)): 0.4 | Log2 fold-change of gene expression: RPL13A (3rd listing (r147)): 1.1 | Log2 fold-change of gene expression: GADPH (3rd listing (r148)): −0.3 | Log2 fold-change of gene expression: ACTB (3rd listing (r149)): −0.9 | Log2 fold-change of gene expression: B2M (4th listing (r193)): −0.8 | Log2 fold-change of gene expression: HPRT1 (4th listing (r194)): 0.1 | Log2 fold-change of gene expression: RPL13A (4th listing (r195)): 0.6 | Log2 fold-change of gene expression: GADPH (4th listing (r196)): 0.4 | Log2 fold-change of gene expression: ACTB (4th listing (r197)): −0.1
